A word on the inhibition: it is the drop in the measured response relative to a control, in per cent.

In patent publication US20260184663A1, “INDENE COMPOUNDS, PHARMACEUTICAL COMPOSITIONS THEREOF, AND THEIR THERAPEUTIC APPLICATIONS” (NucMito Pharmaceuticals co. Ltd., priority 2022, published 2026) one finds inhibition data, which are given here for six compounds.

Holding throughout (type): cell-based
The test system of assay [1] is A549 (lung adenocarcinoma). Description: Antiproliferative activity (CCK-8 cell viability), A549. Particulars: Homo sapiens, 72 h, read-out: Antiproliferative activity in cancerous cells, A549 (inhibition of cell growth); for inhibition at 3.3 µM: Compound concentration: 3.3 μM; for inhibition at 10 µM: Compound concentration: 10 μM; for inhibition at 30 µM: Compound concentration: 30 μM. The procedure, abridged:
(§1)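 Cells were seeded at 2,000-5,000/well (HeLa in MEM, HepG2 and SW480 in DMEM, A549 in F-12K, all with 10% FBS) and treated with compound at 3.3, 10 or 30 μM for 72 h at 37° C. CCK-8 was added for 4 h, absorbance was read at 450 nm, and viability was expressed relative to DMSO-treated wells.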

Assay [2] deals with MDA-MB-231 (breast cancer). Description: Antiproliferative activity (CCK-8 cell viability), MDA-MB-231. Particulars: Homo sapiens, 72 h, read-out: Antiproliferative activity in cancerous cells, MDA-MB-231 (inhibition of cell growth); for inhibition at 3.3 µM: Compound concentration: 3.3 μM; for inhibition at 10 µM: Compound concentration: 10 μM; for inhibition at 30 µM: Compound concentration: 30 μM. The procedure, abridged:
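In this CCK-8 viability assay, MDA-MB-231 cells maintained in Dulbecco's modified Eagle's medium containing 10% fetal bovine serum were placed in 96-well plates (2,000-5,000 cells/well) and treated with compound for 72 h at 37° C. A 4 h incubation with 10 μL CCK-8 followed, plates were read at 450 nm, and viability was expressed against DMSO vehicle wells across replicates.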

Assay [3] has as its system alpha-smooth muscle actin (α-SMA). Description: Inhibition of TGF-β induced expression of alpha-smooth muscle actin (α-SMA) in CFSC cells (western blot). Particulars: compound at 10 μM, TGF-β (10 ng/mL), 24 hours, band intensity vs TGF-β only. The procedure, abridged:
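Values are percent reduction of α-SMA band intensity relative to cells given TGF-β alone, quantified by Western blot densitometry with β-actin probed. Compound was applied at 10 μM alongside 10 ng/mL TGF-β to serum-free CFSC cultures for 24 h at 37 °C.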

Assay [4] deals with B16F10 (malignant melanoma). Kind of assay: Antiproliferative activity (CCK-8 cell viability), B16F10. Particulars: Mus musculus, 72 h, read-out: Antiproliferative activity in cancerous cells, B16F10 (inhibition of cell growth); for inhibition at 3.3 µM: B16-F10, Compound concentration: 3.3 μM; for inhibition at 10 µM: B16-F10, Compound concentration: 10 μM; for inhibition at 30 µM: B16-F10, Compound concentration: 30 μM. In short, it runs like this: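 Attached B16F10 cells in 96-well plates were incubated with compound at 37° C for 72 h, followed by 10 μL CCK-8 reagent per well and a further 4 h incubation. A multi-well plate reader measured absorbance at 450 nm. Percent viability across replicates was calculated against DMSO vehicle-treated cells.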

A further assay relates to HeLa (cervical cancer). Description: Antiproliferative activity (CCK-8 cell viability), HeLa. Particulars: Homo sapiens, 72 h, read-out: Antiproliferative activity in cancerous cells, HELA (inhibition of cell growth); for inhibition at 3.3 µM: Compound concentration: 3.3 μM; for inhibition at 10 µM: Compound concentration: 10 μM; for inhibition at 30 µM: Compound concentration: 30 μM. In short, it runs like this: as §1

The test system of assay [5] is A431 (epidermoid carcinoma). Kind of assay: Antiproliferative activity (CCK-8 cell viability), A431. Particulars: Homo sapiens, 72 h, read-out: Antiproliferative activity in cancerous cells, A431 (inhibition of cell growth); for inhibition at 3.3 µM: A-431, Compound concentration: 3.3 μM; for inhibition at 10 µM: A-431, Compound concentration: 10 μM; for inhibition at 30 µM: A-431, Compound concentration: 30 μM. The procedure, abridged:
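Cell viability of compound-treated A431 cells was measured with a Cell Counting Kit-8. Each well received 10 μL of CCK-8 after 72 h of compound exposure, followed by 4 h incubation at 37° C. and a 450 nm plate-reader measurement. Percent viability was calculated relative to DMSO controls across replicates.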

Another assay has as its system SW480 (colon cancer). Description: Antiproliferative activity (CCK-8 cell viability), SW480. Particulars: Homo sapiens, 72 h, read-out: Antiproliferative activity in cancerous cells, SW480 (inhibition of cell growth); for inhibition at 3.3 µM: Compound concentration: 3.3 μM; for inhibition at 10 µM: Compound concentration: 10 μM; for inhibition at 30 µM: Compound concentration: 30 μM. The procedure, abridged: as §1

Another assay has as its system HepG2 (liver cancer). Kind of assay: Antiproliferative activity (CCK-8 cell viability), HepG2. The conditions noted are these: Homo sapiens, 72 h, read-out: Antiproliferative activity in cancerous cells, HepG2 (inhibition of cell growth); for inhibition at 3.3 µM: Compound concentration: 3.3 μM; for inhibition at 10 µM: Compound concentration: 10 μM; for inhibition at 30 µM: Compound concentration: 30 μM. In short, it runs like this: as §1

In the case of `CC1=C(CC(=O)O)c2cc(F)cc(F)c2/C1=C\c1cccc(COc2ccccc2)c1` [B7, (Z)-2-(5,7-Difluoro-2-methyl-1-(3-(phenoxymethyl)benzylidene)-1H-inden-3-yl)-acetic acid], the inhibition at 3.3 µM was under 30% in assay [1]; at least 50% in assay [2]; under 30% in assay [4]; at least 50% in the assay on HeLa (cervical cancer); 30 to 50% in assay [5]; at least 50% in the assay with SW480 (colon cancer). Moreover, the inhibition at 3.3 µM in the assay on HepG2 (liver cancer) lay in the range of 30 to 50%. Moreover, the inhibition at 10 µM is 30 to 50% in assay [1]; at least 50% in assay [2]; over 80% in assay [3]; 30 to 50% in assay [4]; 30 to 50% with HeLa (cervical cancer); at least 50% in assay [5]. In addition, the results for the inhibition at 10 µM in the assay with SW480 (colon cancer) and with HepG2 (liver cancer) were at least 50% and 30 to 50%, respectively.
In the case of `C/C(=C1/C=C(CC(=O)O)c2ccccc21)c1ccc(F)cc1` [E14, (E)-2-(1-(1-(4-Fluorophenyl)ethylidene)-1H-inden-3-yl)acetic acid], the inhibition at 3.3 µM is under 30% in assay [1]; 30 to 50% in assay [2]; under 30% in assay [4]; 30 to 50% in the assay on HeLa (cervical cancer); under 30% in assay [5]; under 30% with SW480 (colon cancer). In addition, the inhibition at 3.3 µM with HepG2 (liver cancer) is under 30%. In addition, the inhibition at 10 µM in assay [1] is under 30%; in assay [2], 30 to 50%; in assay [3], under 30%; in assay [4], under 30%; in the assay with HeLa (cervical cancer) it was 30 to 50%; in assay [5] it was under 30%. The inhibition at 10 µM in the assay on SW480 (colon cancer) and in the assay with HepG2 (liver cancer) was under 30% in each case. Further, the inhibition at 30 µM in assay [1] was 30 to 50%; in assay [2], 30 to 50%; in assay [4], 30 to 50%; in the assay with HeLa (cervical cancer), at least 50%; in assay [5] it was under 30%; with SW480 (colon cancer), 30 to 50%. Besides, in the assay on HepG2 (liver cancer), the inhibition at 30 µM is under 30%.
With `CC1=C(CC(=O)O)c2ccc(F)cc2/C1=C\c1cccc(Oc2ccccc2)c1` [C16, (Z)-2-(6-Fluoro-2-methyl-1-(3-phenoxybenzylidene)-1H-inden-3-yl)acetic acid], the inhibition at 3.3 µM was under 30% in assay [1]; at least 50% in assay [2]; under 30% in assay [4]; under 30% in the assay with HeLa (cervical cancer); at least 50% in assay [5]; under 30% with SW480 (colon cancer). The inhibition at 3.3 µM in the assay with HepG2 (liver cancer) is at least 50%. Moreover, the inhibition at 10 µM in assay [1] is 30 to 50%; in assay [2], 30 to 50%; in assay [3] it was over 80%; in assay [4], at least 50%; in the assay with HeLa (cervical cancer) it was under 30%; in assay [5], at least 50%. For the same compound, the values for the inhibition at 10 µM in the assay with SW480 (colon cancer) and in the assay with HepG2 (liver cancer) were under 30% and at least 50%, respectively.
Regarding `CCC1=C(CC(=O)O)c2cc(F)ccc2/C1=C\c1ccc(COc2ccccc2)cc1` [A2, (Z)-2-(2-Ethyl-5-fluoro-1-(4-(phenoxymethyl)benzylidene)-1H-inden-3-yl)acetic acid], the inhibition at 3.3 µM in assay [1] was 30 to 50%; in assay [2], at least 50%; in assay [4], 30 to 50%; in the assay with HeLa (cervical cancer), 30 to 50%; in assay [5] it was under 30%; in the assay with SW480 (colon cancer) it was under 30%. Besides, the inhibition at 3.3 µM with HepG2 (liver cancer) lay within 30 to 50%. Further, the inhibition at 10 µM in assay [1] was at least 50%; in assay [2], at least 50%; in assay [3], over 80%; in assay [4] it was at least 50%; in the assay on HeLa (cervical cancer), at least 50%; in assay [5] it was 30 to 50%. For the same compound, the inhibition at 10 µM is under 30% with SW480 (colon cancer) and at least 50% with HepG2 (liver cancer).
As for `COc1ccc(Oc2ccc(/C=C3\C(C)=C(CC(=O)O)c4cc(F)ccc43)cn2)cc1` [E1, (E)-2-(5-Fluoro-1-((6-(4-methoxyphenoxy)pyridin-3-yl)methylene)-2-methyl-1H-inden-3-yl)acetic acid], the inhibition at 3.3 µM (in assay [1]; in assay [2]; in assay [4]; in the assay with HeLa (cervical cancer); in assay [5]; with SW480 (colon cancer)) was under 30% in each case. The inhibition at 3.3 µM in the assay with HepG2 (liver cancer) was under 30%. Moreover, the inhibition at 10 µM in assay [1] was 30 to 50%; in assay [2] it was under 30%; in assay [3], under 30%; in assay [4], under 30%; in the assay with HeLa (cervical cancer), under 30%; in assay [5] it was under 30%. The inhibition at 10 µM in the assay on SW480 (colon cancer) and in the assay with HepG2 (liver cancer) was under 30% each time. Also, the inhibition at 30 µM in assay [1] was 30 to 50%; in assay [2] it was at least 50%; in assay [4] it was 30 to 50%; in the assay with HeLa (cervical cancer) it was 30 to 50%; in assay [5], under 30%; with SW480 (colon cancer), 30 to 50%. The inhibition at 30 µM with HepG2 (liver cancer) lay within 30 to 50%.
`CCc1ccc2c(c1)C(CC(=O)O)=C(C)/C2=C/c1cccc(COc2ccccc2)c1` [B11, (Z)-2-(5-Ethyl-2-methyl-1-(3-(phenoxymethyl)benzylidene)-1H-inden-3-yl)acetic acid]: the inhibition at 3.3 µM is 30 to 50% in assay [1]; 30 to 50% in assay [2]; at least 50% in assay [4]; under 30% in the assay on HeLa (cervical cancer); at least 50% in assay [5]; at least 50% in the assay with SW480 (colon cancer). The inhibition at 3.3 µM with HepG2 (liver cancer) was at least 50%. In addition, the inhibition at 10 µM in assay [1] was at least 50%; in assay [2] it was at least 50%; in assay [3], over 80%; in assay [4] it was at least 50%; in the assay on HeLa (cervical cancer) it was at least 50%; in assay [5], at least 50%. Also, the inhibition at 10 µM in the assay on SW480 (colon cancer) and with HepG2 (liver cancer) was at least 50% throughout.
